Measurements published in publication PMC9374667 (Communications Biology, 2022).
“And” between values parts separate entries of the source, which are not always exact repeats. Equal values may be shown once.

How the values were obtained:
db/db mice = assay: Indirect calorimetry (CLAMS): VO2, VCO2, RER; assay type: in vivo; set-up: Figure 3g (VCO2), individual mice 1-6: unit not given here; settings: for Figure 3g (VCO2), individual mice 1-6 / Figure 3e (VO2), individual mice 1-6: BBR 150mg/kg; for Figure 3e (VO2), individual mice 1-6: in mL/kg/h (unit assumed); for Average RER (VCO2/VO2) / Average VCO2 / Average VO2: 150 mg/kg for 5 weeks, individual mice, 150 mg/kg
Method: At week 5 of treatment, basal metabolic parameters of mice were measured using the Comprehensive Lab Animal Monitoring System (CLAMS, Columbus Instruments, Columbus, OH). […] The number of times the infrared beams were broken along the X- or Y-axis was used to measure the dynamic activity of mice. The respiratory exchange rate (RER) was calculated using classical Lusk theory and equations RER = VCO2/VO2.

3T3-L1 adipocytes = assay: Immunofluorescence staining of UCP1 and MitoTracker; assay type: cell-based, Murine; set-up: key: mean fluorescence intensity measured in ImageJ; settings: Figure 7d; 10uM BBR; replicates
Method: The 3T3-L1 adipocytes were washed with PBS for 3 times, fixed with 4% paraformaldehyde solution for 30 min, and then washed again for 3 times. […] The cells were then incubated overnight at 4 °C with the appropriate primary antibodies (1:100 dilution). The next day, the 3T3-L1 adipocytes were washed and incubated at room temperature with goat anti-rabbit secondary antibody or goat anti-mouse secondary antibody (1:1000 dilution) for 2 h and washed with PBS for 3 times. The nuclei were stained with DAPI. […] Fluorescence images were taken using a laser confocal microscope (SP8, Leica, Germany). At least four images per section were acquired for quantification, and the mean intensity were evaluated using ImageJ.

TBK1 [1] = assay: RT-qPCR of Tbk1 in eWAT and BAT; assay type: in vivo; settings: db/db mice, both doses of BJ
Description: Total RNA was isolated from 3T3-L1 cells and adipose tissue homogenates using Trizol reagent (Invitrogen, Carlsbad, CA, USA). RNA concentration and purity were examined at 260/280 nm using a nanodrop spectrophotometer (NanoDrop One, Thermo Fisher Scientific, USA). The total RNA was reverse transcribed to cDNA using the EasyScript All-in-One First-Strand cDNA Synthesis SuperMix for qPCR kit (TransGen Biotech, Beijing, China). The quantitative reverse transcription polymerase chain reaction was performed using TransStart Top Green qPCR SuperMix (TransGen Biotech, Beijing, China) and an Applied Biosystems 7500 RealTime PCR System (Life Technologies, USA). Relative expression levels were normalized to gapdh expression and quantified using the 2^-ΔΔCt method. The primers were synthesized by Shanghai Sangon Biotech, and the detailed primer sequences were shown in Supplementary Table 5 in the supplementary materials.

TBK1 [2] = molecular target: T1, TBK1 (Mus musculus, UniProt Q9WUN2); assay: TBK1 kinase activity in TNF-α induced 3T3-L1 adipocytes; assay type: cell-based, Murine; set-up: host or cells: differentiated 3T3-L1 adipocytes (Lipofectamine 2000); TBK1 kinase activity: unit not given here; settings: for TBK1 kinase activity: Figure 7g, replicates
T1 sequence (Q9WUN2 1-729): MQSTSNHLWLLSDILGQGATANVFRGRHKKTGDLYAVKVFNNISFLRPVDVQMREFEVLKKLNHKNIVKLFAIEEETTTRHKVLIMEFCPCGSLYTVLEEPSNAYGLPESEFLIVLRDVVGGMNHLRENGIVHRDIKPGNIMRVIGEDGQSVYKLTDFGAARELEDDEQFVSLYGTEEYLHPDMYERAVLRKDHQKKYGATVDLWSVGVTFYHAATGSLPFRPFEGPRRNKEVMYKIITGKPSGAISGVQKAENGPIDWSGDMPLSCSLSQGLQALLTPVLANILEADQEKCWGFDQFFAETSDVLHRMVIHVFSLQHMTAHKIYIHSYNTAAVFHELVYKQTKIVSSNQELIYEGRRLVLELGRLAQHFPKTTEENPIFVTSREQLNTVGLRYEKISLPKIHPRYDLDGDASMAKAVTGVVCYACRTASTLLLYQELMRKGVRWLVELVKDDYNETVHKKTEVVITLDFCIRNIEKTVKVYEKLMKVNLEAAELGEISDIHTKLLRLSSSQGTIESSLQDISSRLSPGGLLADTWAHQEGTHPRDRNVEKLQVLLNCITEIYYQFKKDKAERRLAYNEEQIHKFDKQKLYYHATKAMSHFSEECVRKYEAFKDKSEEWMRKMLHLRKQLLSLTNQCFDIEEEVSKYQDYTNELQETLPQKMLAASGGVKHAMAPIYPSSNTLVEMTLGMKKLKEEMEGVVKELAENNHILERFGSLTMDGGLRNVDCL

## COc1ccc2cc3[n+](cc2c1OC)CCc1cc2c(cc1-3)OCO2 [BBR, Berberine chloride dihydrate]
db/db mice; TIME 09:00:00
  Figure 3g (VCO2), individual mice 1-6: 2187 and 1798.5 and 1382 and 1550.5 and 1282 and 1729
  Figure 3e (VO2), individual mice 1-6: 2463.5 and 1992.5 and 1618.5 and 1830.5 and 1604 and 1996.5
db/db mice; TIME 10:00:00
  Figure 3g (VCO2), individual mice 1-6: 2025.5 and 1306.5 and 1293 and 1507.5 and 1152.5 and 1351.5
  Figure 3e (VO2), individual mice 1-6: 2239.5 and 1396.5 and 1525.5 and 1818.5 and 1443 and 1558.5
db/db mice; TIME 11:00:00
  Figure 3g (VCO2), individual mice 1-6: 1508.5 and 1801 and 1600.5 and 1450.5 and 1810.5 and 2131.5
  Figure 3e (VO2), individual mice 1-6: 1686.5 and 2034 and 1941 and 1727 and 2185.5 and 2486.5
db/db mice; TIME 12:00:00
  Figure 3g (VCO2), individual mice 1-6: 1560 and 1682.5 and 1287 and 1655.5 and 1234 and 1351
  Figure 3e (VO2), individual mice 1-6: 1799.5 and 1905 and 1604.5 and 1986.5 and 1472.5 and 1528
db/db mice; TIME 13:00:00
  Figure 3g (VCO2), individual mice 1-6: 1425.5 and 1753 and 2069 and 1636 and 1111.5 and 1447.5
  Figure 3e (VO2), individual mice 1-6: 1585 and 1943.5 and 2523.5 and 1919 and 1415 and 1703
db/db mice; TIME 14:00:00
  Figure 3g (VCO2), individual mice 1-6: 1628.5 and 1269.5 and 1997.5 and 1334 and 1382 and 1265.5
  Figure 3e (VO2), individual mice 1-6: 1785 and 1394 and 2318.5 and 1559 and 1696.5 and 1512.5
db/db mice; TIME 15:00:00
  Figure 3g (VCO2), individual mice 1-6: 1579.5 and 1285 and 1642.5 and 1147.5 and 2064.5 and 1675
  Figure 3e (VO2), individual mice 1-6: 1826 and 1499.5 and 1948.5 and 1433.5 and 2445.5 and 1943
db/db mice; TIME 16:00:00
  Figure 3g (VCO2), individual mice 1-6: 1579 and 1741 and 1899.5 and 1326 and 1630.5 and 1658.5
  Figure 3e (VO2), individual mice 1-6: 1816.5 and 2044.5 and 2249 and 1622.5 and 1845.5 and 1914
db/db mice; TIME 17:00:00
  Figure 3g (VCO2), individual mice 1-6: 1290.5 and 1905.5 and 1610 and 1666.5 and 1315 and 1412.5
  Figure 3e (VO2), individual mice 1-6: 1507 and 2598 and 1769 and 2019 and 1551.5 and 1596.5
db/db mice; TIME 18:00:00
  Figure 3g (VCO2), individual mice 1-6: 1292.5 and 1365.5 and 1937 and 1461.5 and 1206 and 1444
  Figure 3e (VO2), individual mice 1-6: 1496 and 1510 and 2285 and 1793 and 1482.5 and 1701
db/db mice; TIME 19:00:00
  Figure 3g (VCO2), individual mice 1-6: 1404 and 1310 and 1770.5 and 1481 and 1876 and 2094
  Figure 3e (VO2), individual mice 1-6: 1643.5 and 1465 and 2034 and 1838.5 and 2235 and 2481.5
db/db mice; TIME 20:00:00
  Figure 3g (VCO2), individual mice 1-6: 1181 and 2034.5 and 1933 and 1597 and 1575 and 1493.5
  Figure 3e (VO2), individual mice 1-6: 1393.5 and 2338.5 and 2268.5 and 1885.5 and 1848 and 1679
db/db mice; TIME 21:00:00
  Figure 3g (VCO2), individual mice 1-6: 1529.5 and 1566 and 1830 and 1676.5 and 1825.5 and 1630.5
  Figure 3e (VO2), individual mice 1-6: 1863.5 and 1748.5 and 2189 and 2027 and 2201.5 and 1886
db/db mice; TIME 22:00:00
  Figure 3g (VCO2), individual mice 1-6: 1627 and 2225 and 1746.5 and 1760.5 and 1520.5 and 2058.5
  Figure 3e (VO2), individual mice 1-6: 1913.5 and 2540.5 and 2028.5 and 2082.5 and 1881 and 2440
db/db mice; TIME 23:00:00
  Figure 3g (VCO2), individual mice 1-6: 1717.5 and 1505 and 2209 and 1848.5 and 1914.5 and 1764
  Figure 3e (VO2), individual mice 1-6: 1949 and 1704 and 2610 and 2181 and 2319.5 and 2010
db/db mice; TIME 1900-01-01
  Figure 3g (VCO2), individual mice 1-6: 2124.5 and 2214 and 2120 and 1937 and 2080.5 and 2184
  Figure 3e (VO2), individual mice 1-6: 2407.5 and 2513.5 and 2566 and 2292.5 and 2527.5 and 2541
db/db mice; TIME 1900-01-01 01:00:00
  Figure 3g (VCO2), individual mice 1-6: 2199 and 2168 and 2133.5 and 2137.5
  Figure 3e (VO2), individual mice 1-6: 2537.5 and 2453.5 and 2566.5 and 2667.5
db/db mice; db/db mice, day (light)
  Average RER (VCO2/VO2): 0.8616 and 0.8798 and 0.8875 and 0.8398 and 0.8298 and 0.8335
  Average VCO2: 1622.56 mL/kg/h and 1565.49 mL/kg/h and 1609.72 mL/kg/h and 1647.75 mL/kg/h and 1464.46 mL/kg/h and 1503.39 mL/kg/h
  Average VO2: 1884.95 mL/kg/h and 1778.17 mL/kg/h and 1816.62 mL/kg/h and 1961.4 mL/kg/h and 1761.29 mL/kg/h and 1801.34 mL/kg/h
db/db mice; db/db mice, night (dark)
  Average RER (VCO2/VO2): 0.8596 and 0.865 and 0.8782 and 0.8452 and 0.8334 and 0.8299
  Average VCO2: 1853.01 mL/kg/h and 1992.32 mL/kg/h and 1939.05 mL/kg/h and 2005.04 mL/kg/h and 1829.32 mL/kg/h and 1792.5 mL/kg/h
  Average VO2: 2155.98 mL/kg/h and 2301.37 mL/kg/h and 2209 mL/kg/h and 2370.62 mL/kg/h and 2194.4 mL/kg/h and 2160.78 mL/kg/h
db/db mice; db/db mice, light-dark cycle, 5 weeks of treatment, vs vehicle
  Oxygen consumption (VO2) and carbon dioxide elimination (VCO2) levels: significantly higher than those in the vehicle-treated group
3T3-L1 adipocytes
  MitoTracker: 25.545 and 18.064 and 22.543 and 21.627 and 16.023 and 19.205 and 20.957 and 15.64 and 24.469 and 20.477 and 21.808 and 21.524
  UCP1: 28.534 and 25.717 and 23.768 and 26.01 and 16.988 and 23.573 and 17.055 and 20.669 and 24.128 and 20.8 and 21.801 and 21.746

## CC(C)Cc1ccc(C(C)C(=O)[O-])cc1.COc1ccc2cc3[n+](cc2c1OC)CCc1cc2c(cc1-3)OCO2.O.O.O.O [BJ, berberine-ibuprofen]
TBK1 [1]
  Tbk1 mRNA expression in BAT: had no effect
  mRNA level of TBK1 (Tbk1) in eWAT: significantly reduced
TBK1 [2]; TNF-α(50ng/ml)+3μM BJ
  TBK1 kinase activity: 30.9473 and 32.9827 and 24.4703 and 29.2741 and 25.0999 and 33.9831
TBK1 [2]; TNF-α(50ng/ml)+10μM BJ
  TBK1 kinase activity: 22.2193 and 16.8634 and 20.5634 and 20.4771 and 22.3055 and 16.9152
TBK1 [2]; TNF-α induced 3T3-L1 adipocytes, BJ treatment for 24 h
  TBK1 expression level / kinase activity: markedly decreased
